Test [1] has as its system Beet Armyworm (Spodoptera exigua, LAPHEG). Kind of test: Bioassays on Beet Armyworm (BAW), 128-well diet tray assay. It is filed as in vivo. To be noted: Spodoptera exigua. The method, boiled down: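 Percent larval mortality, averaged across eight wells, scored after five to seven days at 25° C. under 14:10 light-dark. Each well held one to five second instars feeding on diet dosed at 50 μg/cm^2 with compound from 90:10 acetone-water, solvent dried off.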

Test [2] has as its system Cabbage Looper (Trichoplusia ni, TRIPNI). The experiment in a line: Bioassays on Cabbage Looper (CL), 128-well diet tray assay. It counts as in vivo. The conditions noted are these: Trichoplusia ni. The method, boiled down: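 Percent mortality, averaged across eight replicate wells, after second-instar larvae (1–5 per well) fed for five to seven days on diet dosed at 50 μg/cm^2. Compound was applied in acetone-water 90:10 and dried; trays kept vented at 25° C under 14:10 photoperiod.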

[3] abbreviates: Beet Armyworm, rating class, read-out: BAW.
Where [4] appears, read: Cabbage Looper, rating class, read-out: CL.
[5] abbreviates: Table ABC: Biological Results, species BAW, read-out: BAW.
[6] abbreviates: Table ABC: Biological Results, species CL, read-out: CL.
Setting [7] is: Beet Armyworm, Table ABC / ABC-DP rating, read-out: BAW rating.
The mark [8] stands for this setting: Cabbage Looper, Table ABC / ABC-DP rating, read-out: CL rating.

Read-outs that look alike come from different tables or passages of the source.

On to `O=C(Nc1ccc(F)cc1F)c1cc(NC(=O)[C@H]2[C@H](c3ccc(F)c(F)c3)C2(Cl)Cl)ccc1Cl` [F1750, 2-Chloro-5-((1R,3R)-2,2-dichloro-3-(3,4-difluorophenyl)cyclopropane-1-carboxamido)-N-(2,4-difluorophenyl)benzamide], for which the pest or weed control at 50 µg/cm2 in test [1] (setting [3]) and in test [2] (setting [4]) was 50 to 100% each time.
Turning to `Cc1cc(NC(=O)[C@H]2[C@H](c3ccc(Cl)c(Cl)c3)C2(Cl)Cl)cc(C(=O)Nc2c(F)ccc(NC(=O)C(F)(F)F)c2F)c1Cl` [F1430, 2-Chloro-5-((1R,3R)-2,2-dichloro-3-(3,4-dichlorophenyl)cyclopropane-1-carboxamido)-N-(2,6-difluoro-3-(2,2,2-trifluoroacetamido)phenyl)-3-methylbenzamide], the pest or weed control at 50 µg/cm2 in test [1] (setting [3]) and in test [2] (setting [4]) was 50 to 100% each time.
`CC(=O)Nc1cc(NC(=O)c2cc(NC(=O)[C@H]3[C@H](c4cc(Cl)c(Cl)c(Cl)c4)C3(Cl)Cl)cc(C)c2Cl)c(F)cc1F` [F1547]: the pest or weed control at 50 µg/cm2 in test [1] (setting [3]) and in test [2] (setting [4]) was 50 to 100% throughout.
Turning to `Cc1cc(NC(=O)[C@H]2[C@H](c3cc(Cl)c(Cl)c(Cl)c3)C2(Cl)Cl)cc(C(=O)Nc2ccc(F)c(NC(=O)C(F)F)c2F)c1Cl` [F1486, 2-Chloro-5-((1R,3R)-2,2-dichloro-3-(3,4,5-trichlorophenyl)cyclopropane-1-carboxamido)-N-(3-(2,2-difluoroacetamido)-2,4-difluorophenyl)-3-methylbenzamide], the pest or weed control at 50 µg/cm2 in test [1] (setting [3]) and in test [2] (setting [4]) was 50 to 100% each time.
`CCOC(CC)C(=O)Nc1c(F)ccc(NC(=O)c2cc(NC(=O)[C@H]3[C@H](c4ccc(F)c(C(F)(F)F)c4)C3(Cl)Cl)ccc2Cl)c1F` (stereo partly drawn) [F1757, 2-Chloro-5-((1R,3R)-2,2-dichloro-3-(4-fluoro-3-(trifluoromethyl)phenyl)cyclopropane-1-carboxamido)-N-(3-(2-ethoxybutanamido)-2,4-difluorophenyl)benzamide]: the pest or weed control at 50 µg/cm2 in test [1] (setting [3]) and in test [2] (setting [4]) was 50 to 100% throughout.
In the case of `O=C(Nc1c(F)ccc(NC(=O)C(F)(F)C(F)F)c1F)c1cc(NC(=O)[C@H]2[C@H](c3ccc(F)c(C(F)(F)F)c3)C2(Cl)Cl)ccc1Cl` [F1564, 2-Chloro-5-((1R,3R)-2,2-dichloro-3-(4-fluoro-3-(trifluoromethyl)phenyl)cyclopropane-1-carboxamido)-N-(2,6-difluoro-3-(2,2,3,3-tetrafluoropropanamido)phenyl)benzamide], the pest or weed control at 50 µg/cm2 in test [1] (setting [3]) and in test [2] (setting [4]) was 50 to 100% each time.
On to `O=C(Nc1ccccc1)c1cc(NC(=O)[C@H]2[C@H](c3ccc(F)c(Cl)c3)C2(Cl)Cl)cc(F)c1F` (relative stereo) [F1207, trans-5-(2,2-Dichloro-3-(3-chloro-4-fluorophenyl)cyclopropane-1-carboxamido)-2,3-difluoro-N-phenylbenzamide], for which the pest or weed control at 50 µg/cm2 in test [1] (setting [5]) and in test [2] (setting [6]) was 50 to 100% each time.
In the case of `C=CCC(=O)Nc1ccc(F)c(NC(=O)c2cc(NC(=O)[C@H]3[C@H](c4cc(Cl)c(Cl)c(Cl)c4)C3(Cl)Cl)cc(F)c2F)c1F` [F1875, N-(3-(But-3-enamido)-2,6-difluorophenyl)-5-((1R,3R)-2,2-dichloro-3-(3,4,5-trichlorophenyl)cyclopropane-1-carboxamido)-2,3-difluorobenzamide], the pest or weed control at 50 µg/cm2 in test [1] (setting [7]) and in test [2] (setting [8]) was 50 to 100% throughout.
Consider `CC1OC1C(=O)Nc1c(F)ccc(NC(=O)c2cc(NC(=O)[C@H]3[C@H](c4ccc(F)c(C(F)(F)F)c4)C3(Cl)Cl)ccc2Cl)c1F` (stereo partly drawn) [F1748, N-(3-(2-Chloro-5-((1R,3R)-2,2-dichloro-3-(4-fluoro-3-(trifluoromethyl)phenyl)cyclopropane-1-carboxamido)benzamido)-2,6-difluorophenyl)-3-methyloxirane-2-carboxamide], for which the pest or weed control at 50 µg/cm2 in test [1] (setting [3]) and in test [2] (setting [4]) was 50 to 100% in each case.
On to `O=C(Nc1c(F)ccc(NC(=O)C(F)F)c1F)c1cc(NC(=O)[C@H]2[C@H](c3ccc(Cl)c(Cl)c3)C2(Cl)Cl)cc(F)c1F` [F1577, 5-((1R,3R)-2,2-Dichloro-3-(3,4-dichlorophenyl)cyclopropane-1-carboxamido)-N-(3-(2,2-difluoroacetamido)-2,6-difluorophenyl)-2,3-difluorobenzamide], for which the pest or weed control at 50 µg/cm2 in test [1] (setting [3]) and in test [2] (setting [4]) was 50 to 100% in each case.
For the compound `C#CCNc1c(F)ccc(NC(=O)c2cc(NC(=O)[C@H]3[C@H](c4ccc(F)c(C(F)(F)F)c4)C3(Cl)Cl)ccc2Cl)c1F` [F1807, 2-Chloro-5-((1R,3R)-2,2-dichloro-3-(4-fluoro-3-(trifluoromethyl)phenyl)cyclopropane-1-carboxamido)-N-(2,4-difluoro-3-(prop-2-yn-1-ylamino)phenyl)benzamide], the pest or weed control at 50 µg/cm2 in test [1] (setting [7]) and in test [2] (setting [8]) was 50 to 100% throughout.
On to `CC(F)(F)CCC(=O)Nc1c(F)ccc(NC(=O)c2cc(NC(=O)[C@H]3[C@H](c4ccc(F)c(Cl)c4)C3(Cl)Cl)ccc2Cl)c1F` [F1864, 2-Chloro-5-((1R,3R)-2,2-dichloro-3-(3-chloro-4-fluorophenyl)cyclopropane-1-carboxamido)-N-(3-(4,4-difluoropentanamido)-2,4-difluorophenyl)benzamide], for which the pest or weed control at 50 µg/cm2 in test [1] (setting [7]) and in test [2] (setting [8]) was 50 to 100% throughout.
As for `O=C(NCC(F)(F)C(F)(F)F)c1cc(NC(=O)[C@H]2[C@H](c3ccc(F)c(Cl)c3)C2(Cl)Cl)cc(Cl)c1F` (relative stereo) [F2046, trans-3-Chloro-5-(2,2-dichloro-3-(3-chloro-4-fluorophenyl)cyclopropane-1-carboxamido)-2-fluoro-N-(2,2,3,3,3-pentafluoropropyl)benzamide], the pest or weed control at 50 µg/cm2 in test [1] (setting [7]) and in test [2] (setting [8]) was 50 to 100% throughout.
Take `CC(=O)Nc1ccc(NC(=O)c2cc(NC(=O)[C@H]3[C@H](c4ccc(F)c(Cl)c4)C3(Cl)Cl)cc(F)c2F)cc1` (relative stereo) [F1210, trans-N-(4-Acetamidophenyl)-5-(2,2-dichloro-3-(3-chloro-4-fluorophenyl)cyclopropane-1-carboxamido)-2,3-difluorobenzamide]: the pest or weed control at 50 µg/cm2 in test [1] (setting [5]) and in test [2] (setting [6]) was 50 to 100% throughout.
`CN(NC(=O)c1cc(NC(=O)[C@H]2[C@H](c3cc(Cl)cc(Cl)c3)C2(Cl)Cl)ccc1Cl)C(=O)CC(F)(F)F` (relative stereo) [F2533, trans-2,2-Dichloro-N-(4-chloro-3-(2-methyl-2-(3,3,3-trifluoropropanoyl)hydrazine-1-carbonyl)phenyl)-3-(3,5-dichlorophenyl)cyclopropane-1-carboxamide]: the pest or weed control at 50 µg/cm2 in test [1] (setting [7]) and in test [2] (setting [8]) was 50 to 100% in each case.
On to `O=C(Nc1cc(F)cc(NC(=O)C(F)(F)F)c1)c1cc(NC(=O)[C@H]2[C@H](c3cc(Cl)cc(Cl)c3)C2(Cl)Cl)ccc1Cl` (relative stereo) [F1639, trans-2-Chloro-5-(2,2-dichloro-3-(3,5-dichlorophenyl)cyclopropane-1-carboxamido)-N-(3-fluoro-5-(2,2,2-trifluoroacetamido)phenyl)benzamide], for which the pest or weed control at 50 µg/cm2 in test [1] (setting [3]) and in test [2] (setting [4]) was 50 to 100% in each case.
Take `Cc1cc(NCCC(N)=O)ccc1NC(=O)c1cc(NC(=O)[C@H]2[C@H](c3cc(Cl)cc(Cl)c3)C2(Cl)Cl)ccc1Cl` (relative stereo) [F1158, trans-N-(4-((3-Amino-3-oxopropyl)amino)-2-methylphenyl)-2-chloro-5-(2,2-dichloro-3-(3,5-dichlorophenyl)cyclopropane-1-carboxamido)benzamide]: the pest or weed control at 50 µg/cm2 in test [1] (setting [5]) and in test [2] (setting [6]) was 50 to 100% throughout.
Regarding `O=C(Nc1ccc(F)c(NC(=O)C2CCO2)c1F)c1cc(NC(=O)[C@H]2[C@H](c3ccc(F)c(C(F)(F)F)c3)C2(Cl)Cl)ccc1Cl` (stereo partly drawn) [F1503, N-(3-(2-Chloro-5-((1R,3R)-2,2-dichloro-3-(4-fluoro-3-(trifluoromethyl)phenyl)cyclopropane-1-carboxamido)benzamido)-2,6-difluorophenyl)oxetane-2-carboxamide], the pest or weed control at 50 µg/cm2 in test [1] (setting [3]) and in test [2] (setting [4]) was 50 to 100% throughout.
Turning to `CC(=O)Nc1c(F)ccc(NC(=O)c2cc(NC(=O)[C@H]3[C@H](c4ccc(F)c(C(F)(F)F)c4)C3(Cl)Cl)cc(C)c2Cl)c1F` [F1545, N-(3-acetamido-2,4-difluorophenyl)-2-chloro-5-((1R,3R)-2,2-dichloro-3-(4-fluoro-3-(trifluoromethyl)phenyl)cyclopropane-1-carboxamido)-3-methylbenzamide], the pest or weed control at 50 µg/cm2 in test [1] (setting [3]) and in test [2] (setting [4]) was 50 to 100% each time.
Turning to `O=C(Nc1ccc(F)c(NC(=O)C(F)(F)F)c1F)c1cc(NC(=O)[C@H]2[C@H](c3ccc(F)c(C(F)(F)F)c3)C2(Cl)Cl)cc(F)c1Cl` [F1290, 2-Chloro-5-((1R,3R)-2,2-dichloro-3-(4-fluoro-3-(trifluoromethyl)phenyl)cyclopropane-1-carboxamido)-N-(2,4-difluoro-3-(2,2,2-trifluoroacetamido)phenyl)-3-fluorobenzamide], the pest or weed control at 50 µg/cm2 in test [1] (setting [5]) and in test [2] (setting [6]) was 50 to 100% each time.

(Values after patent publication US20250228239A1, “MOLECULES HAVING PESTICIDAL UTILITY, AND INTERMEDIATES, COMPOSITIONS, AND PROCESSES, RELATED THERETO” (priority 2024, published 2025).)
